Assay results reported in patent US12263248B2, “Compounds and compositions for intracellular delivery of therapeutic agents” (ModernaTX, Inc., priority 2018, dated 2025).

What was measured:
luciferase mRNA = assay: Luciferase expression after subcutaneous administration to mice; format: in vivo, female CD-1 mice; details: 0.5 mpk, relative to MC3
Procedure: The effect of the lipids of the disclosure on protein expression upon subcutaneous administration was studied. Formulations containing lipids of the disclosure and an mRNA expressing luciferase or hEPO were administered subcutaneously to female CD-1 mice at 0.5 mpk. Expression levels were obtained via whole body luminescent imaging (BLI) at 3, 6 and 24 hours after injection and expression levels in liver, spleen and at the injection site were evaluated ex vivo after 24 hours. […] See also Tables 35 and 36, and FIGS. 19 and 27.
Table 35 summarizes the luciferase expression levels using various nanoparticle compositions of the disclosure, and the luciferase expression levels using various nanoparticle compositions of the disclosure as compared to the luciferase expression level using an MC3 formulation after subcutaneous administration, as described above.

[1] = Apparent (surface) pKa of the LNP formulation (TNS assay); format: physicochemical
Summary of the method: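 LNP (0.04 mg/mL mRNA) mixed with TNS reagent in 21 buffers spanning about pH 3-12, in triplicate; fluorescence plotted against pH as sigmoidal curve. Apparent pKa taken as […] curve inflection point; validated in 1× PBS and 20 mM Tris w/8% sucrose.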

luciferase (Luc) mRNA = assay: Luc expression (total flux) after intramuscular administration; format: in vivo, mice; details: for Total flux, 0.001 mpk Dose / Total flux, 0.01 mpk Dose: 6 hours after intramuscular administration, Luc mRNA and H10 mRNA; for Novel lipid/MC3 expression ratio, 6 hr. time point, i.m. Luc: relative to MC3 formulation; for AUC (p/s * h) / Lipid/MC3 AUC: Table 3H, Luc
Summary of the method: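 Mice given a single intramuscular dose of lipid nanoparticle formulations carrying modified Luc mRNA, alone or with H10 mRNA, at 0.001 or 0.01 mpk total. Luciferase expression recorded as total flux.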

hEPO mRNA = assay: hEPO expression after intravenous administration to rats; format: in vivo, rat
Summary of the method: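 Rats dosed intravenously once with nanoparticle composition, 0.2 or 2.0 mpk, formulated by the standard MC3 method. Tail-vein blood sampled at 6 h or at time points from 0.25 to 48 h. hEPO measured by ELISA.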

[2] = lipid nanoparticle, ±SD within one assay run (Table 37)

Compound	pKa ([1]; Table 1A)	Total flux, 0.001 mpk Dose (luciferase (Luc) mRNA; 0.001 mpk) [p/s]	Total flux, 0.01 mpk Dose (luciferase (Luc) mRNA; 0.01 mpk) [p/s]	other results
CCCCCCCCCOC(=O)CCCCCCCN(CCCO)CCCCCCCC(=O)OC(CCCCCCCC)CCCCCCCC [Compound 19, Heptadecan-9-yl 8-((3-hydroxypropyl)(8-(nonyloxy)-8-oxooctyl)amino) octanoate]	6.78	3.28E+06	2.96E+07	Novel lipid/MC3 expression ratio, 6 hr. time point, s.c. Luc 0.5 mpk (luciferase mRNA): 2.13; Novel lipid/MC3 expression ratio, 6 hr. time point, i.m. Luc (luciferase (Luc) mRNA; intramuscular): 3.68
CCCCCCCCC(CCCCCCCC)OC(=O)CCCCCCCN(CCO)CCCCCC(=O)OC(CCCCCCCC)C1CC1 (stereo not drawn) [Compound 128, Heptadecan-9-yl 8-((6-((1-cyclopropylnonyl)oxy)-6-oxohexyl)(2-hydroxyethyl)amino)octanoate]	6.56			Novel lipid/MC3 expression ratio, 6 hr. time point, s.c. Luc 0.5 mpk (luciferase mRNA): 0.47; AUC (p/s * h) (luciferase (Luc) mRNA; intramuscular): 8.59E+08 p/s * h; Lipid/MC3 AUC (luciferase (Luc) mRNA; intramuscular): 1.46
CCCCCCCCC(CCCCCCCC)OC(=O)CCCCCCCN(CCO)CCCCCC [Compound 5, Heptadecan-9-yl 8-(hexyl(2-hydroxyethyl)amino)octanoate]	6.84	9.84E+05	3.55E+06	
CCCCC/C=C\C/C=C\CCCCCCCCN(CCO)CCCCCCCC(=O)OCCCCCCCCC [Compound 136, Nonyl 8-((2-hydroxyethyl)((9Z,12Z)-octadeca-9,12-dien-1-yl)amino)octanoate]	6.95			pKa [1, 2]: 6.95 ± 0.13
CCCCCCCCC(CCCCCCCC)OC(=O)CCCCCCCN(CCO)CCCCCCCC(=O)OCC1CC1CCCCCC (stereo not drawn) [Compound 28, Heptadecan-9-yl 8-((8-((2-hexylcyclopropyl)methoxy)-8-oxooctyl)(2-hydroxyethyl)amino)octanoate]	6.04	6.73E+05	5.56E+06	
CCCCCCCCCOC(=O)CCCCCCCN(CCCCCCCC(=O)OC(CCCCCCCC)CCCCCCCC)C[C@H](C)O [Compound 12, Heptadecan-9-yl (S)-8-((2-hydroxypropyl)(8-(nonyloxy)-8-oxooctyl)amino)octanoate]	5.99	8.02E+04	8.90E+05	
CCCCCCCCCOC(=O)CCCCCCCN(CCO)CCCCCCCC(=O)N(CCCCCCCC)CCCCCCCC [Compound 144, Nonyl 8-((8-(dioctylamino)-8-oxooctyl)(2-hydroxyethyl)amino)octanoate]	7.09	2.72E+06	2.18E+07	
CCCCCCCCCCCCCCN(CCO)CCCCCCCC(=O)OC(CCCCCCCC)CCCCCCCC [Compound 2, Heptadecan-9-yl 8-((2-hydroxyethyl)(tetradecyl)amino)octanoate]	6.73	3.55E+06	6.16E+07	
CCCCCCCCCOC(=O)CCCCCCCN(CCO)CCCCCCC(=O)OCC(CCCCCCCC)CCCCCCCC [Compound 143, Nonyl 8-((2-hydroxyethyl)(7-((2-octyldecyl)oxy)-7-oxoheptyl)amino)octanoate]	6.47			AUC (p/s * h) (luciferase (Luc) mRNA; intramuscular): 2.29E+09 p/s * h; Lipid/MC3 AUC (luciferase (Luc) mRNA; intramuscular): 3.89; Novel lipid/MC3 expression ratio, 6 hr. time point, i.m. Luc (luciferase (Luc) mRNA; intramuscular): 4.05
CCCCCCCCCOC(=O)CCCN(CCO)CCCCCCCC(=O)OC(CCCCCCCC)CCCCCCCC [Compound 26, Heptadecan-9-yl 8-((2-hydroxyethyl)(4-(nonyloxy)-4-oxobutyl)amino) octanoate]	6.64	3.90E+06	6.13E+07	pKa ([1]; Table 6): 6.64; pKa [1, 2]: 6.64 ± 0.14; Fold increase in Luc expression relative to MC3, Intramuscular (0.001 mpk dose) (luciferase (Luc) mRNA; intramuscular, 0.001 mpk): 0.56; Fold increase in Luc expression relative to MC3, Intramuscular (0.01 mpk dose) (luciferase (Luc) mRNA; intramuscular, 0.01 mpk): 1.39; Lipid/MC3 hEPO expression (hEPO mRNA; 2 mpk dose to rat, 6 hours after administration): 4.95; Lipid/MC3 hEPO conc. ratio 2 mpk (hEPO mRNA; rats, intravenous, 2 mpk, 6 hours): 4.95
